In article PMC9502836, “Zika Virus Inhibitors Based on a 1,3-Disubstituted 1H-Pyrazolo[3,4-d]pyrimidine-amine Scaffold” (Molecules, 2022):
Like-named read-outs stand apart in the source and are kept apart here.

Columns and labels:
[1] = test system: luciferase reporter ZIKV; experiment: luciferase-based ZIKV reporter assay in Huh7 cells; type: cell-based; details: Zika virus; for inhibition at 10 µM: Huh-7, 72 h, read-out: ZIKV Reporter Assay Inhibition (%) at 10 µM
Description: (§1) In the current study, we continued to use our previously reported luciferase-based ZIKV reporter assay as a primary antiviral screening, by which newly synthesized compounds were tested (at 10 µM) along with NITD008 (Figure 1, at 1 µM), a flavivirus RNA-dependent RNA polymerase (RdRp) inhibitor, and NSC 12155 (Figure 1, at 10 µM), a flavivirus NS5 methyltransferase (MTase) inhibitor, as reference compounds (Table 1). […] For active compounds (>60% titer-reduction), dose-response experiments were performed to determine EC50 (half maximal effective concentration, a concentration that is needed to cause half of the maximum possible pharmacological effect) and CC50 (half cytotoxic concentration, a concentration that is required to reduce cell viability by 50%) values. For selected compounds, EC50 values in the reporter assay were also measured.
(§2) The ZIKV reporter assay and titer-reduction assay were performed as previously reported. Briefly, Huh7 cells (1.5 × 10^4) were seeded in a 96-well plate and inoculated with a luciferase reporter ZIKV (MOI=0.2). After two hours, the cells were treated with medium containing the compound (10 µM). After 3 days post-infection, the cells were lysed, the Nanoluc signal was detected using the Nano-Glo® luciferase assay (Promega), then measured using a Neo 2 plate reader (BioTek, Winooski, VT, USA). For titer-reduction assays, 1.5 × 10^5 Huh7 cell were seeded in a 24-well plate. Next day, the cells were inoculated with ZIKV for two hours. The inoculum was replaced with compound-containing medium (8.5 µM) and incubated for 3 days. Supernatants were collected and viral titers were estimated by plaque assay.

[2] = Cell viability (CC50) assay, MTS-based; details: human; for viability at 3 days, 10 µM: 10 µM compound, Huh7 cells, read-out: ZIKV Reporter Assay Viability (%) at 10 µM
Description: as §1
The cell viability assay was performed in Huh7 cells as previously reported. Briefly, non-infected Huh7 cells were treated with the testing compounds for 3 days. Viability was measured by absorbance at […] using the MTS-based tetrazolium reduction CellTiter 96 Aqueous Non-Radioactive cell proliferation assay (Promega).

[3] = test system: ZIKV; experiment: ZIKV titer reduction assay (plaque assay of supernatants) in Huh7 cells; type: cell-based; details: Zika virus; for inhibition at 8.5 µM: Huh-7, 72 h, read-out: Titer Reduction Assay % at 8.5 µM
Description: as §1, §2

[4] = 8.5 µM compound, Huh7 cells, 3 days
[5] = Huh-7, Huh7 cells, read-out: Titer Reduction Assay EC50
[6] = non-infected Huh7 cells, 3 days, read-out: CC50

## Cc1ccccc1OCc1nn(Cc2ccc([N+](=O)[O-])cc2)c2ncnc(N)c12 [Compound 26, 1-(4-Nitrobenzyl)-3-((o-tolyloxy)methyl)-1H-pyrazolo[3,4-d]pyrimidin-4-amine]
[1]
  inhibition at 10 µM: 60%
[2]; 3 days
  viability at 3 days, 10 µM: 77%

## Nc1ncnc2c1c(COc1ccccc1)nn2Cc1ccc(C(F)(F)F)cc1 [Compound 13, 3-(Phenoxymethyl)-1-(4-(trifluoromethyl)benzyl)-1H-pyrazolo[3,4-d]pyrimidin-4-amine]
[1]
  inhibition at 10 µM: 68%
[3]; [4]
  inhibition at 8.5 µM: 73%
[3]; [5]
  EC50: 6.5 µM
[2]; 3 days
  viability at 3 days, 10 µM: 86%
[2]; [6]
  CC50 at 3 days: > 100 µM

## Nc1ncnc2c1c(COc1ccc(Cl)cc1)nn2Cc1ccc([N+](=O)[O-])cc1 [Compound 31, 3-((4-Chlorophenoxy)methyl)-1-(4-nitrobenzyl)-1H-pyrazolo[3,4-d]pyrimidin-4-amine]
[1]
  inhibition at 10 µM: 60%
[3]; [4]
  inhibition at 8.5 µM: 40%
[2]; 3 days
  viability at 3 days, 10 µM: 94%

## COC(=O)c1ccccc1Cn1nc(COc2ccccc2)c2c(N)ncnc21 [Compound 16, Methyl 2-((4-Amino-3-(phenoxymethyl)-1H-pyrazolo[3,4-d]pyrimidin-1-yl)methyl)benzoate]
[1]
  inhibition at 10 µM: 0%
[2]; 3 days
  viability at 3 days, 10 µM: 95%

## Nc1ncnc2c1c(COc1ccccc1)nn2Cc1ccccc1[N+](=O)[O-] [Compound 8, 1-(2-Nitrobenzyl)-3-(phenoxymethyl)-1H-pyrazolo[3,4-d]pyrimidin-4-amine]
[1]
  inhibition at 10 µM: 9%
[2]; 3 days
  viability at 3 days, 10 µM: 103%

## Nc1ncnc2c1c(COc1ccccc1)nn2Cc1ccnc(Cl)c1 [Compound 20, 1-((2-Chloropyridin-4-yl)methyl)-3-(phenoxymethyl)-1H-pyrazolo[3,4-d]pyrimidin-4-amine]
[1]
  inhibition at 10 µM: 88%
[2]; 3 days
  viability at 3 days, 10 µM: 39%

## COC(=O)c1cccc(Cn2nc(COc3ccccc3)c3c(N)ncnc32)c1 [Compound 17, Methyl 3-((4-Amino-3-(phenoxymethyl)-1H-pyrazolo[3,4-d]pyrimidin-1-yl)methyl)benzoate]
[1]
  inhibition at 10 µM: 88%
[2]; 3 days
  viability at 3 days, 10 µM: 38%

## Cc1ccc(OCc2nn(Cc3ccc([N+](=O)[O-])cc3)c3ncnc(N)c23)cc1 [Compound 28, 1-(4-Nitrobenzyl)-3-((p-tolyloxy)methyl)-1H-pyrazolo[3,4-d]pyrimidin-4-amine]
[1]
  inhibition at 10 µM: 65%
[3]; [4]
  inhibition at 8.5 µM: 34%
[2]; 3 days
  viability at 3 days, 10 µM: 85%

## COC(=O)c1ccc(Cn2nc(COc3ccccc3)c3c(N)ncnc32)cc1 [Compound 18, Methyl 4-((4-amino-3-(phenoxymethyl)-1H-pyrazolo[3,4-d]pyrimidin-1-yl)methyl)benzoate]
[1]
  inhibition at 10 µM: 6%
[2]; 3 days
  viability at 3 days, 10 µM: 95%

## Nc1ccc(Cn2nc(COc3ccccc3)c3c(N)ncnc32)cc1 [Compound 12, 1-(4-Aminobenzyl)-3-(phenoxymethyl)-1H-pyrazolo[3,4-d]pyrimidin-4-pmine]
[1]
  inhibition at 10 µM: 0%
[2]; 3 days
  viability at 3 days, 10 µM: 95%

## N#Cc1ccc(Cn2nc(COc3ccccc3)c3c(N)ncnc32)cc1 [Compound 15, 4-((4-Amino-3-(phenoxymethyl)-1H-pyrazolo[3,4-d]pyrimidin-1-yl)methyl)benzonitrile]
[1]
  inhibition at 10 µM: 37%
[2]; 3 days
  viability at 3 days, 10 µM: 99%

## Nc1ncnc2c1c(CNc1ccccc1)cn2Cc1ccc([N+](=O)[O-])cc1 [Compound 4, 7-(4-Nitrobenzyl)-5-((phenylamino)methyl)-7H-pyrrolo[2,3-d]pyrimidin-4-amine]
[1]
  inhibition at 10 µM: 91%
[2]; 3 days
  viability at 3 days, 10 µM: 40%

## Nc1ncnc2c1c(COc1ccccc1)cn2Cc1ccc([N+](=O)[O-])cc1 [Compound 5, 7-(4-Nitrobenzyl)-5-(phenoxymethyl)-7H-pyrrolo[2,3-d]pyrimidin-4-amine]
[1]
  inhibition at 10 µM: 62%
[3]; [4]
  inhibition at 8.5 µM: 94%
[3]; [5]
  EC50: 4.3 µM
[2]; 3 days
  viability at 3 days, 10 µM: 82%
[2]; [6]
  CC50 at 3 days: 58 µM

## Nc1cc(Cn2nc(COc3ccccc3)c3c(N)ncnc32)ccn1 [Compound 22, 1-((2-Aminopyridin-4-yl)methyl)-3-(phenoxymethyl)-1H-pyrazolo[3,4-d]pyrimidin-4-amine]
[1]
  inhibition at 10 µM: 67%
[2]; 3 days
  viability at 3 days, 10 µM: 36%

## Nc1ncnc2c1c(COc1cccc(Cl)c1)nn2Cc1ccc([N+](=O)[O-])cc1 [Compound 30, 3-((3-Chlorophenoxy)methyl)-1-(4-nitrobenzyl)-1H-pyrazolo[3,4-d]pyrimidin-4-amine]
[1]
  inhibition at 10 µM: 52%
[3]; [4]
  inhibition at 8.5 µM: 11%
[2]; 3 days
  viability at 3 days, 10 µM: 93%

## Nc1ncnc2c1c(COc1ccccc1)nn2Cc1ccc([N+](=O)[O-])cc1 [Compound 6, 1-(4-Nitrobenzyl)-3-(phenoxymethyl)-1H-pyrazolo[3,4-d]pyrimidin-4-amine]
[1]
  inhibition at 10 µM: 65%
[3]; [4]
  inhibition at 8.5 µM: 65%
[3]; [5]
  EC50: 5.1 µM
[2]; 3 days
  viability at 3 days, 10 µM: 82%
[2]; [6]
  CC50 at 3 days: 39 µM

## Nc1cccc(Cn2nc(COc3ccccc3)c3c(N)ncnc32)c1 [Compound 11, 1-(3-Aminobenzyl)-3-(phenoxymethyl)-1H-pyrazolo[3,4-d]pyrimidin-4-amine]
[1]
  inhibition at 10 µM: 0%
[2]; 3 days
  viability at 3 days, 10 µM: 89%

## Nc1ccc(Cn2nc(COc3ccccc3)c3c(N)ncnc32)cn1 [Compound 23, 1-((6-Aminopyridin-3-yl)methyl)-3-(phenoxymethyl)-1H-pyrazolo[3,4-d]pyrimidin-4-amine]
[1]
  inhibition at 10 µM: 49%
[3]; [4]
  inhibition at 8.5 µM: 20%
[2]; 3 days
  viability at 3 days, 10 µM: 82%

## Nc1ccccc1Cn1nc(COc2ccccc2)c2c(N)ncnc21 [Compound 10, 1-(2-Aminobenzyl)-3-(phenoxymethyl)-1H-pyrazolo[3,4-d]pyrimidin-4-amine]
[1]
  inhibition at 10 µM: 0%
[2]; 3 days
  viability at 3 days, 10 µM: 99%

## Nc1ncnc2c1c(COc1ccccc1)nn2Cc1ccccc1 [Compound 7, 1-Benzyl-3-(phenoxymethyl)-1H-pyrazolo[3,4-d]pyrimidin-4-amine]
[1]
  inhibition at 10 µM: 0%
[2]; 3 days
  viability at 3 days, 10 µM: 99%

## Cc1cccc(OCc2nn(Cc3ccc([N+](=O)[O-])cc3)c3ncnc(N)c23)c1 [Compound 27, 1-(4-Nitrobenzyl)-3-((m-tolyloxy)methyl)-1H-pyrazolo[3,4-d]pyrimidin-4-amine]
[1]
  inhibition at 10 µM: 71%
[3]; [4]
  inhibition at 8.5 µM: 53%
[2]; 3 days
  viability at 3 days, 10 µM: 82%

## Nc1ncnc2c1c(COc1ccccc1)nn2Cc1ccc(Cl)nc1 [Compound 21, 1-((6-Chloropyridin-3-yl)methyl)-3-(phenoxymethyl)-1H-pyrazolo[3,4-d]pyrimidin-4-amine]
[1]
  inhibition at 10 µM: 82%
[1]; Huh-7, read-out: ZIKV Reporter Assay EC50
  EC50: 3.5 µM
[3]
  inhibition at 8.5 µM: 74%
[3]; Huh-7, read-out: Titer Reduction Assay EC50
  EC50: 5.2 µM
[2]
  CC50 at 3 days: 25 µM
[2]; 3 days
  viability at 3 days, 10 µM: 64%

## Nc1ncnc2c1c(COc1ccccc1)nn2Cc1cccc([N+](=O)[O-])c1 [Compound 9, 1-(3-Nitrobenzyl)-3-(phenoxymethyl)-1H-pyrazolo[3,4-d]pyrimidin-4-amine]
[1]
  inhibition at 10 µM: 90%
[2]; 3 days
  viability at 3 days, 10 µM: 37%

## CC(C)(C)OC(=O)Nc1cc(Cn2nc(COc3ccccc3)c3c(N)ncnc32)ccn1 [Compound 24, Tert-Butyl (4-((4-Amino-3-(phenoxymethyl)-1H-pyrazolo[3,4-d]pyrimidin-1-yl)methyl)pyridin-2-yl)carbamate]
[1]
  inhibition at 10 µM: 62%
[2]; 3 days
  viability at 3 days, 10 µM: 36%

## CC(C)(C)OC(=O)Nc1ccc(Cn2nc(COc3ccccc3)c3c(N)ncnc32)cn1 [Compound 25, Tert-Butyl (5-((4-Amino-3-(phenoxymethyl)-1H-pyrazolo[3,4-d]pyrimidin-1-yl)methyl)pyridin-2-yl)carbamate]
[1]
  inhibition at 10 µM: 68%
[2]; 3 days
  viability at 3 days, 10 µM: 40%

## CS(=O)(=O)c1ccc(Cn2nc(COc3ccccc3)c3c(N)ncnc32)cc1 [Compound 14, 1-(4-(Methylsulfonyl)Benzyl)-3-(phenoxymethyl)-1H-pyrazolo[3,4-d]pyrimidin-4-amine]
[1]
  inhibition at 10 µM: 58%
[3]; [4]
  inhibition at 8.5 µM: 52%
[2]; 3 days
  viability at 3 days, 10 µM: 93%

## Nc1ncnc2c1c(COc1ccccc1Cl)nn2Cc1ccc([N+](=O)[O-])cc1 [Compound 29, 3-((2-Chlorophenoxy)methyl)-1-(4-nitrobenzyl)-1H-pyrazolo[3,4-d]pyrimidin-4-amine]
[1]
  inhibition at 10 µM: 34%
[2]; 3 days
  viability at 3 days, 10 µM: 94%

## NC(=O)c1ccc(Cn2nc(COc3ccccc3)c3c(N)ncnc32)cc1 [Compound 19, 4-((4-Amino-3-(phenoxymethyl)-1H-pyrazolo[3,4-d]pyrimidin-1-yl)methyl)benzamide]
[1]
  inhibition at 10 µM: 63%
[3]; [4]
  inhibition at 8.5 µM: 22%
[2]; 3 days
  viability at 3 days, 10 µM: 77%
